Results published in patent US11452716B2, “Pharmaceutical composition and use thereof” (Ascentage Pharma (Suzhou) Co., Ltd., priority 2018, dated 2022).
Several values for one entry are separate records, joined by “and”; a condition that tells them apart may be missing. Identical values can stand only once.

Experiments:
[1] = test system: liposarcoma patient-derived xenograft (LP-19-0029 PDX); test: Antitumor activity in subcutaneous liposarcoma patient-derived xenograft (LP-19-0029 PDX) model; assay type: in vivo, Balb/c nude mice; conditions: for T/C (%) @D 21 / RTV @D 21: Embodiment 2, day 21, Compound C 80 mg/kg p.o. Q2D x 16D, Palbociclib 50 mg/kg p.o. QD x 3W; for RTV @D 21: mean ± SEM, n=5; for RTV @D 22 / T/C(%) @D 22: day 22, Compound C 40 mg/kg p.o. q.2d x 3w, Palbociclib 50 mg/kg p.o. q.d x 3w, Ribociclib 75 mg/kg p.o. q.d x 3w
Description: Animals: Balb/c nude, female, 6-8 weeks, weighing approximately 18-22 g. A total of 40 (20 plus 100%) will be needed for the study, which will be purchased from Shanghai SLAC Laboratory Animal Co., LTD. Generation of the subcutaneous liposarcoma patient-derived xenograft (LP-19-0029 PDX) Model: The LP-19-0029 PDX model was originally established from a surgically resected clinical sample (cancer type: liposarcoma; pathology diagnosis: dedifferentiated liposarcoma), and implanted in nude mice defined as passage 0 (P0). The next passage implanted from P0 tumor was defined as passage 1 (P1), and so on during continual implantation in mice. The frozen tumor fragments will be revived in NOD SCID mice, when the tumors develop to suitable size, they will be passaged to Balb/c nude mice. The P4-P7 tumors will be used for the study. Each mouse was implanted subcutaneously at the right flank with the LP-19-0029 P4 tumor slices (about 30 mm^3) for tumor development. Treatments were started when the average tumor size reached approximately 150 mm^3. The animals were assigned into groups using an Excel-based randomization software performing stratified randomization based upon their tumor volumes. Each group consisted of 5 tumor-bearing mice. [table] Tumor volumes were measured twice weekly in two dimensions using a caliper, and the volume was expressed in mm^3 using the formula: Tumor Volume(mm^3)=0.5a×b^2 where a and b are the long and short diameters of the tumor, respectively. Relative tumor volume (RTV) was calculated using the following formula: RTV=Vt/Vl where Vl and Vt are the average tumor volumes on the first day of treatment (day 1) and the average tumor volumes on a certain time point (day t). Synergy score was calculated using the following formula described in Clarke R. Issues in experimental design and endpoint analysis in the study of experimental cytotoxic agents in vivo in breast cancer and other models[J]. Breast Cancer Research & Treatment, 1997, 46(2-3):255-278, which is incorporated by reference in its entirety: Synergy score=(([…]); where A is RTV value of drug A; B is RTV value of drug B; C is RTV value of vehicle control. AB is RTV value of combination treatment with A and B. Synergy scores: >1 represents synergistic, =1 represents additive, <1 represents antagonistic (referring to Gould S E et al. Translational value of mouse models in oncology drug development. Nature medicine. 2015 21, 431-439). Standard NCI procedures were used to calculate tumor parameters. Percent tumor growth inhibition (% T/C) was calculated as the mean RTV of treated tumors (T) divided by the mean RTV of control tumors (C)×100%. The percentage T/C value is an indication of antitumor effectiveness: a value of T/C<42% is considered significant antitumor activity by the NCI. A T/C value<10% is considered to indicate highly significant antitumor activity, and is the level used by the NCI to justify a clinical trial if toxicity and certain other requirements are met (termed DN-2 level activity). A body weight loss nadir (mean of group) of greater than 20%, or greater than 20% of drug deaths are considered to indicate an excessively toxic dosage. Summary statistics, including mean and the standard error of the mean (SEM), are provided for the tumor volume of each group at each time point. Statistical analysis of difference in the tumor volume among the groups were conducted on the data obtained at the best therapeutic time point after the final dose. A one-way ANOVA was performed to compare the tumor volume and the tumor weight among groups, and when a significant F-statistics (a ratio of treatment variance to the error variance) was obtained, comparisons between groups were carried out with Games-Howell test. All data were analyzed using SPSS 17.0. p<0.05 is considered to be statistically significant. […]

[2] = test system: lung cancer patient-derived xenograft (LU-01-0448 PDX); test: Antitumor activity in subcutaneous lung cancer patient-derived xenograft (LU-01-0448 PDX) model; assay type: in vivo, mice; conditions: Embodiment 4; for mRECIST / Response @ D 33: animals per category, PD progressive disease, SD stable disease, PR partial response; for T/C(%) @ D 33 / RTV @ D 33 / Response @ D 33: day 33; for T/C(%) @ D 33 / RTV @ D 33: Compound C 100 mg/kg p.o. QD x 5 D, Palbociclib 50 mg/kg p.o. QD x 21 D; for RTV @ D 33: n=2
Method: Tumor volumes were measured twice weekly in two dimensions using a caliper, and the volume was expressed in mm^3 using the formula: Tumor Volume(mm^3)=0.5a×b^2 Relative tumor volume (RTV) was calculated using the following formula: RTV=Vt/Vl Synergy score=(([…]); where A is RTV value of drug A; B is RTV value of drug B; C is RTV value of vehicle control. AB is RTV value of combination treatment with A and B. Synergy scores: >1 represents synergistic, =1 represents additive, <1 represents antagonistic (referring to Gould S E et al. Translational value of mouse models in oncology drug development. Nature medicine. 2015 21, 431-439). Standard NCI procedures were used to calculate tumor parameters. Percent tumor growth inhibition (% T/C) was calculated as the mean RTV of treated tumors (T) divided by the mean RTV of control tumors (C)×100%. The percentage T/C value is an indication of antitumor effectiveness: a value of T/C<42% is considered significant antitumor activity by the NCI. A T/C value<10% is considered to indicate highly significant antitumor activity, and is the level used by the NCI to justify a clinical trial if toxicity and certain other requirements are met (termed DN-2 level activity). A body weight loss nadir (mean of group) of greater than 20%, or greater than 20% of drug deaths are considered to indicate an excessively toxic dosage. Compound C was further tested in combination with palbociclib in another patient-derived xenograft model (LU-01-0448 PDX model). LU-01-0448 PDX model was a subcutaneous lung cancer patient-derived xenograft model, which was established according to the procedures of LP-19-0029 PDX model in embodiment 2. This experiment was carried out according to Table 4 and the procedures described in embodiment 2. [table]

| SMILES | T/C (%) @D 21 [1] | T/C (%) @D 21 ([1]; listed as compound C) | RTV @D 21 [1] | RTV @35 ([1]; Embodiment 3, @35, Compound C 40 mg/kg, Palbociclib 50 mg/kg, Ribociclib 75 mg/kg) | RTV @D 22 ([1]; Embodiment 3) | T/C(%) @D 22 ([1]; Embodiment 3) | mRECIST [2] | T/C(%) @ D 33 [2] | RTV @ D 33 [2] | Response @ D 33 [2] | T/C(%) @D 22 ([1]; Embodiment 3, listed as ribociclib) | T/C(%) @D 22 ([1]; Embodiment 3, listed as palbociclib) |
| --- | --- | --- | --- | --- | --- | --- | --- | --- | --- | --- | --- | --- |
| CCN1[C@@H](C(=O)NC23CCC(C(=O)O)(CC2)CC3)[C@H](c2cccc(Cl)c2F)[C@]2(C(=O)Nc3cc(Cl)ccc32)C12CCCCC2 [Compound C, 4-((3′R,4′S,5′R)-6″-Chloro-4′-(3-chloro-2-fluorophenyl)-1′-ethyl-2″-oxodispiro[cyclohexane-1,2′-pyrrolidine-3′,3″-indoline]-5′-carboxamido)bicyclo[2.2.2]octane-1-carboxylic acid] | 22.28% | 22% | 4.83 ± 1.56 | 10.95 ± 1.66 | 5.24 ± 0.61 | 38.4% and 38.44% | 2/2 SD | 41.43% | 4.85 ± 1.85 | 2/2 PD |  |  |
| CN(C)C(=O)c1cc2cnc(Nc3ccc(N4CCNCC4)cn3)nc2n1C1CCCC1 [Ribociclib, ribociclib] |  |  |  |  | 9.77 ± 1.22 | 71.70% |  |  |  |  | 71.7% |  |
| CC(=O)c1c(C)c2cnc(Nc3ccc(N4CCNCC4)cn3)nc2n(C2CCCC2)c1=O [Palbociclib, palbociclib] | 70% |  | 15.19 ± 1.31 |  | 11.36 ± 0.96 | 83.50% | 2/2 PD | 35.71% | 4.18 ± 0.80 | 2/2 PD |  | 83.5% |
